According to patent US7674801B2 (AstraZeneca AB, priority 2006, dated 2010):
pIC50: −log10 of the molar value.

Target: S. aureus (SAU) GyrB ATPase (Staphylococcus aureus, UniProt P0A0K8)
Test: S. aureus GyrB ATPase inhibition, ammonium molybdate/malachite green phosphate detection assay
Assay type: biochemical
Settings: for inhibition at 12.5 µM: read-out: S. aureus (SAU) GyrB ATPase % Inhibition, compound concentration 12.5 μM; for inhibition at 5 µM: compound concentration 5 μM (values marked *); for pIC50: 10 compound concentrations, 500 μM ATP
Experimental: Compounds were tested for inhibition of GyrB ATPase activity using an ammonium molybdate/malachite green-based phosphate detection assay (Lanzetta, P. A., L. J. Alvarez, P. S. Reinach, and O. A. Candia, 1979, 100: 95-97). Assays were performed in multiwell plates in 100 μl reactions containing: 50 mM Hepes buffer pH 7.5, 75 mM ammonium acetate, 8.0 mM magnesium chloride, 1.0 mM ethylenediaminetetraacetic acid, 5% glycerol, 2 mM 1,4-Dithio-DL-threitol, 400 nM bovine serum albumin, 5 μg/ml sheared salmon sperm DNA, 1.25 nM E. coli GyrA, 1.25 nM S. aureus GyrB, 500 μM ATP, and compound in dimethylsulfoxide. Reactions were quenched with 150 μl of ammonium molybdate/malachite green detection reagent containing 1.2 mM malachite green hydrochloride, 8.5 mM ammonium molybdate tetrahydrate, and 1 M hydrochloric acid. Plates were read in an absorbance plate reader at 650 nm and percent inhibition values were calculated using dimethylsulfoxide (2%)-containing reactions as 0% inhibition and novobiocin-containing (2 μM) reactions as 100% inhibition controls. Compound potency was based on IC50 measurements determined from reactions performed in the presence of 10 different compound concentrations.

S. aureus (SAU) GyrB ATPase, sequence (P0A0K8 whole entry): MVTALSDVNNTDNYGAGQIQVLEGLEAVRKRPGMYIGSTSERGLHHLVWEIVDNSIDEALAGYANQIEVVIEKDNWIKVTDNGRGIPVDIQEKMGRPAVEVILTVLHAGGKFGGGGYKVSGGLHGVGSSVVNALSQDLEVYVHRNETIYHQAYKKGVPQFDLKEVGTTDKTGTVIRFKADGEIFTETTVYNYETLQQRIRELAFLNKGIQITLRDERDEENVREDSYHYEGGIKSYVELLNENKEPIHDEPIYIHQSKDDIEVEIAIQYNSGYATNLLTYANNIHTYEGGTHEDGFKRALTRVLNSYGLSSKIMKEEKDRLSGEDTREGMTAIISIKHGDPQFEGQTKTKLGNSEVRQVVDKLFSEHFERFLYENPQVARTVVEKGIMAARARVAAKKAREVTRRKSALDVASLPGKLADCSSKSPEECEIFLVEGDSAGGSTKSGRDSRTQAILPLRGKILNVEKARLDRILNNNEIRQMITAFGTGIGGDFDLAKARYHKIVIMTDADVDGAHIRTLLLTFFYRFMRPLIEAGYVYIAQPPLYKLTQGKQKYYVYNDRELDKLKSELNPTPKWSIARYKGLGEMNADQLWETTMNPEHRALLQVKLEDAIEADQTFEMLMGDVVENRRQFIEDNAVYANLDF
S. aureus (SAU) GyrB ATPase, sequence (P0AES4 whole entry, further chain): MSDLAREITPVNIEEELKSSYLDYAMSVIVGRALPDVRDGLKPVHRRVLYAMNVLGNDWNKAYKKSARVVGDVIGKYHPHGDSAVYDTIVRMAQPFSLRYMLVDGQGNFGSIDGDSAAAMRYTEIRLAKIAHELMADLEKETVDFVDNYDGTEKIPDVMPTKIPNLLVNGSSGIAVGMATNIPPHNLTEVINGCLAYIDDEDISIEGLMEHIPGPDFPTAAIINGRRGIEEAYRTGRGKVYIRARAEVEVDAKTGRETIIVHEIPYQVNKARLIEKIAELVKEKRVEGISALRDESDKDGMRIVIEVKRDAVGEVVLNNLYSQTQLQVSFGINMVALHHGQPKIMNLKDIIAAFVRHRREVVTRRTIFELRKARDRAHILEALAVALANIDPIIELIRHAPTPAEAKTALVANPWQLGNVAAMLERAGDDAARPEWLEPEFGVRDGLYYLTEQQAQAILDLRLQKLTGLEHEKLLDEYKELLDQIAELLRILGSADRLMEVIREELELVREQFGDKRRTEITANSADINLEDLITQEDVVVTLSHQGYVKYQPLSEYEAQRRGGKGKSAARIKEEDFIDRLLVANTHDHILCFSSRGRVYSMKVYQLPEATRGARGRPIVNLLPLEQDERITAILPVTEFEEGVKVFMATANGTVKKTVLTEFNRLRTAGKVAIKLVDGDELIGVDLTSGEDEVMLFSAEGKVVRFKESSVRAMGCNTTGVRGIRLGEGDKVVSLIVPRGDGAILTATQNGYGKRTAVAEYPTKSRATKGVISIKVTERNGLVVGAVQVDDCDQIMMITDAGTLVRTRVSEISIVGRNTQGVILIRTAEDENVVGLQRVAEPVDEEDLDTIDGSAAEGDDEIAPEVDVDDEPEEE

SMILES | inhibition at 12.5 µM | inhibition at 5 µM | pIC50
CCNC(=O)Nc1ccc(-c2ncc(C(=O)OC)s2)cn1 [Example 1, Methyl 2-(6-{[(ethylamino)carbonyl]amino}pyridin-3-yl)-1,3-thiazole-5-carboxylate] | 3.02% |  | 
CCNC(=O)Nc1ccc(-c2nc(C(=O)OCC)cs2)cn1 [Example 2, Ethyl 2-(6-{[(ethylamino)carbonyl]amino}pyridin-3-yl)-1,3-thiazole-4-carboxylate] | 99.1% |  | 
CCNC(=O)Nc1ccc(-c2cncc(C(=O)OCC)c2)cn1 [Example 3, Ethyl 6′-{[(ethylamino)carbonyl]amino}-3,3′-bipyridine-5-carboxylate] | 55% |  | 
CCNC(=O)Nc1ccc(-c2nc3cccc(C(=O)OCC)c3s2)cn1 [Example 4, Ethyl 2-(6-{[(ethylamino)carbonyl]amino}pyridin-3-yl)-1,3-benzothiazole-7-carboxylate] | 84% |  | 
CCNC(=O)Nc1ccc(-c2ccc(C(=O)OC)cn2)cn1 [Example 5, Methyl 6′-{[(ethylamino)carbonyl]amino}-2,3′-bipyridine-5-carboxylate] | 63.7% |  | 
CCNC(=O)Nc1ccc(-c2cccc(C(=O)OC)c2)cn1 [Example 6, Methyl 3-(6-{[(ethylamino)carbonyl]amino}pyridin-3-yl)benzoate] | 99.7% |  | 
CCNC(=O)Nc1ccc(-c2ccc(C(=O)OC)cc2)cn1 [Example 7, Methyl 4-(6-{[(ethylamino)carbonyl]amino}pyridin-3-yl)benzoate] | 97.4% |  | 
CCNC(=O)Nc1ccc(-c2nc(C(=O)NC)c(C(=O)OC(C)C)s2)cn1 [Example 8, Isopropyl 2-(6-{[(ethylamino)carbonyl]amino}pyridin-3-yl)-4-[(methylamino)carbonyl]-1,3-thiazole-5-carboxylate] | 81.5% |  | 
CCNC(=O)Nc1ccc(-c2nc(C(=O)NC3CC3)c(C(=O)OCC)s2)cn1 [Example 9, Ethyl 4-[(cyclopropylamino)carbonyl]-2-(6-{[(ethylamino)carbonyl]amino}pyridin-3-yl)-1,3-thiazole-5-carboxylate] | 93.5% |  | 
CCCCNC(=O)c1nc(-c2ccc(NC(=O)NCC)nc2)sc1C(=O)OCC [Example 10, Ethyl 4-[(butylamino)carbonyl]-2-(6-{[(ethylamino)carbonyl]amino}pyridin-3-yl)-1,3-thiazole-5-carboxylate] | 92.6% |  | 
CCNC(=O)Nc1ccc(-c2ccc3nc(C(=O)OC)cn3c2)cn1 [Example 12, Methyl 6-(6-{[(ethylamino)carbonyl]amino}pyridin-3-yl)imidazo[1,2-a]pyridine-2-carboxylate] | 92.6% |  | 
CCNC(=O)Nc1ncc(-c2cccc(C(=O)OC)c2)cn1 [Example 13, Methyl 3-(2-{[(ethylamino)carbonyl]amino}pyrimidin-5-yl)benzoate] | 99% |  | 
CCNC(=O)Nc1ncc(-c2ncc(C(=O)OC)s2)cn1 [Example 14, Methyl 2-(2-{[(ethylamino)carbonyl]amino}pyrimidin-5-yl)-1,3-thiazole-5-carboxylate] |  | 99.5% | 
CCNC(=O)Nc1cccc(-c2cccc(C(=O)OCC)c2)n1 [Example 15, Ethyl 3-(6-{[(ethylamino)carbonyl]amino}pyridin-2-yl)benzoate] | 97.9% |  | 
CCNC(=O)Nc1cccc(-c2ccc(C(=O)OCC)cc2)n1 [Example 16, Ethyl 4-(6-{[(ethylamino)carbonyl]amino}pyridin-2-yl)benzoate] |  | 1.28% | 
CCNC(=O)Nc1ccc(-c2ncc(C(=O)O)s2)cn1 [Example 17, 2-(6-{[(ethylamino)carbonyl]amino}pyridin-3-yl)-1,3-thiazole-5-carboxylic acid] | 99.1% |  | 6.58
CCNC(=O)Nc1ccc(-c2nc(C(=O)O)cs2)cn1 [Example 18, 2-(6-{[(Ethylamino)carbonyl]amino}pyridin-3-yl)-1,3-thiazole-4-carboxylic acid] | 101% |  | 
CCNC(=O)Nc1ccc(-c2cncc(C(=O)O)c2)cn1 [Example 19, 6′-{[(Ethylamino)carbonyl]amino}-3,3′-bipyridine-5-carboxylic acid] | 95.1% |  | 6.07
CCNC(=O)Nc1ccc(-c2nc3cccc(C(=O)O)c3s2)cn1 [Example 20, 2-(6-{[(Ethylamino)carbonyl]amino}pyridin-3-yl)-1,3-benzothiazole-7-carboxylic acid] | 98.4% |  | 
CCNC(=O)Nc1ccc(-c2ccc(C(=O)O)cn2)cn1 [Example 21, 6′-{[(Ethylamino)carbonyl]amino}-2,3′-bipyridine-5-carboxylic acid] | 77.1% |  | 

SMILES | inhibition at 12.5 µM | inhibition at 5 µM | pIC50
CCNC(=O)Nc1ccc(-c2cccc(C(=O)O)c2)cn1 [Example 22, 3-(6-{[(Ethylamino)carbonyl]amino}pyridin-3-yl)benzoic acid] | 99.7% |  | 
CCNC(=O)Nc1ccc(-c2ccc(C(=O)O)cc2)cn1 [Example 23, 4-(6-{[(Ethylamino)carbonyl]amino}pyridin-3-yl)benzoic acid] | 92.5% |  | 
CCNC(=O)Nc1ccc(-c2nc(C(=O)NC)c(C(=O)O)s2)cn1 [Example 24, 2-(6-{[(Ethylamino)carbonyl]amino}pyridin-3-yl)-4-[(methylamino)carbonyl]-1,3-thiazole-5-carboxylic acid] | 99.1% |  | 
CCNC(=O)Nc1ccc(-c2nc(C(=O)NC3CC3)c(C(=O)O)s2)cn1 [Example 25, 4-[(Cyclopropylamino)carbonyl]-2-(6-{[(ethylamino)carbonyl]amino}pyridin-3-yl)-1,3-thiazole-5-carboxylic acid] | 99.5% |  | 
CCNC(=O)Nc1ccc(-c2nc(C(C)=O)c(C(=O)O)s2)cn1 [Example 27, 4-Acetyl-2-(6-{[(ethylamino)carbonyl]amino}pyridin-3-yl)-1,3-thiazole-5-carboxylic acid] | 99.1% |  | 
CCNC(=O)Nc1ccc(-c2ccc3nc(C(=O)O)cn3c2)cn1 [Example 28, 6-(6-{[(Ethylamino)carbonyl]amino}pyridin-3-yl)imidazo[1,2-a]pyridine-2-carboxylic acid] | 96.8% |  | 
CCNC(=O)Nc1ncc(-c2cccc(C(=O)O)c2)cn1 [Example 29, 3-(2-{[(Ethylamino)carbonyl]amino}pyrimidin-5-yl)benzoic acid] | 13.6% |  | 
CCNC(=O)Nc1ncc(-c2ncc(C(=O)O)s2)cn1 [Example 30, 2-(2-{[(Ethylamino)carbonyl]amino}pyrimidin-5-yl)-1,3-thiazole-5-carboxylic acid] | 62.9% |  | 
CCNC(=O)Nc1cccc(-c2cccc(C(=O)O)c2)n1 [Example 31, 3-(6-{[(Ethylamino)carbonyl]amino}pyridin-2-yl)benzoic acid] | 100% |  | 
CCNC(=O)Nc1cccc(-c2ccc(C(=O)O)cc2)n1 [Example 32, 4-(6-{[(Ethylamino)carbonyl]amino}pyridin-2-yl)benzoic acid] | 2.66% |  | 
CCNC(=O)Nc1nc(-c2ccc(C(=O)O)cc2)cs1 [Example 33, 4-(2-{[(Ethylamino)carbonyl]amino}-1,3-thiazol-4-yl)benzoic acid] | 38.2% |  | 
CCNC(=O)Nc1ccc(-c2ncc(C(=O)NOC)s2)cn1 [Example 34, 2-(6-{[(Ethylamino)carbonyl]amino}pyridin-3-yl)-N-methoxy-1,3-thiazole-5-carboxamide] |  | 42.5% | 
CCNC(=O)Nc1ccc(-c2nc(C(=O)NC3CC3)c(C(=O)NOC)s2)cn1 [Example 35, N^4-Cyclopropyl-2-(6-{[(ethylamino)carbonyl]amino}pyridin-3-yl)-N^5-methoxy-1,3-thiazole-4,5-dicarboxamide] |  | 96.7% | 
CCCCNC(=O)c1nc(-c2ccc(NC(=O)NCC)nc2)sc1C(=O)NOC [Example 36, N^4-Butyl-2-(6-{[(ethylamino)carbonyl]amino}pyridin-3-yl)-N^5-methoxy-1,3-thiazole-4,5-dicarboxamide] | 4.84% |  | 7.77
CCNC(=O)Nc1ccc(-c2ncc(C(N)=O)s2)cn1 [Example 37, 2-(6-{[(Ethylamino)carbonyl]amino}pyridin-3-yl)-1,3-thiazole-5-carboxamide] | 98.9% |  | 
CCNC(=O)Nc1ccc(-c2nc(C(=O)NC3CC3)c(C(N)=O)s2)cn1 [Example 38, N^4-Cyclopropyl-2-(6-{[(ethylamino)carbonyl]amino}pyridin-3-yl)-1,3-thiazole-4,5-dicarboxamide] | 91.8% |  | 
CCCCNC(=O)c1nc(-c2ccc(NC(=O)NCC)nc2)sc1C(N)=O [Example 39, N^4-Butyl-2-(6-{[(ethylamino)carbonyl]amino}pyridin-3-yl)-1,3-thiazole-4,5-dicarboxamide] | 99% |  | 7.85
CCNC(=O)Nc1ccc(-c2nc3cccc(C(N)=O)c3s2)cn1 [Example 40, 2-(6-{[(Ethylamino)carbonyl]amino}pyridin-3-yl)-1,3-benzothiazole-7-carboxamide] | 83.7% |  | 
CCNC(=O)Nc1nc(-c2ccc(C(=O)OC)cc2)cs1 [Example 41, Methyl 4-(2-{[(ethylamino)carbonyl]amino}-1,3-thiazol-4-yl)benzoate] | 26.9% |  | 
